According to publication PMC4552634, “A New Set of Chemical Starting Points with Plasmodium falciparum Transmission-Blocking Potential for Antimalarial Drug Discovery” (PLoS ONE, 2015):
Where two headings read alike, the source gives them in different places.

Legend:
[1] = tested on: P. falciparum stage V gametocytes; experiment: Gametocytocidal ATP bioluminescence assay (single point 5 μM and 1 μM, dose-response); assay type: cell-based, Plasmodium falciparum; details: for Ratio IC50 HepG2/IC50 P. falciparum: IC50 HepG2 divided by IC50 P. falciparum gametocytes
Experimental: Purified stage IV-V gametocytes were obtained as previously described [10]. Single point ATP bioluminescence assay and dose–response of positive hits was determined in accordance with the previously published protocol [10].

[2] = tested on: luciferase reaction (BacTiter-Glo); experiment: Interference assay (inhibition of the BacTiter-Glo luciferase reaction); assay type: biochemical; set-up: concentration or dose not given beside the values; details: ATP interference assay
Experimental: To discard possible false-positive results, we performed an interference assay in parallel. […] […]. The ATP solution was made by dissolving ATP powder (ATP standard from the ATPlite 1 step assay kit, reference 6016731, Perkin Elmer) in culture medium. The positive control used was the Luciferase Inhibitor I Calbiochem (Merck, 119113) at 100 μM.

[3] = Cytotoxicity in HepG2 cells (intracellular ATP, ATPlite, 48 h); assay type: cell-based, human; details: human, HepG2 cells
HepG2 cells = experiment: as above; assay type: cell-based, human; details: IC50 HepG2 divided by IC50 P. falciparum gametocytes
[4] = tested on: P. falciparum asexual stages; details: TCAMS data, cited from earlier work
[5] = Plasmodium falciparum, P. falciparum gametocytes, average, read-out: IC50 Pf Gametocytes average, IC50 (µM) average
[6] = sexual stages (gametocytes), dose-response, read-out: IC50 sexual
[7] = IC50 per ratio column head, unit inferred, read-out: Cytotoxicity in HepG2
[8] = asexual stages, read-out: IC50 asexual
[9] = Plasmodium falciparum, sexual stages (gametocytes), dose-response, read-out: IC50 sexual
[10] = P. falciparum asexual stages, read-out: IC50 (µM) Pf asexual stages
[11] = HepG2, 48 h exposure, intracellular ATP, read-out: IC50 (μM) Cytotoxicity HepG2

SMILES | Ratio IC50 HepG2/IC50 P. falciparum [1] | IC50 [1, 5] [µM] | IC50 [1, 6] [µM] | % Control luminiscence [2] [%] | IC50 at 48 h [3, 7] [µM] | Ratio IC50 HepG2/IC50 P. falciparum (HepG2 cells) | IC50 [4, 8] [µM] | IC50 [1, 9] [µM] | IC50 [4, 10] [µM] | IC50 at 48 h [3, 11] [µM]
COc1cc(NC(=O)c2sc(-c3ccc(Cl)cc3)cc2NC(=O)c2cccnc2)ccc1OCCN1CCCC1 [TCMDC-135397] | >41 | 0.61 | 0.613 | 100 | > 25 | >41 | 0.38 | – | – | –
C/C=C/C=C/C1=NCCc2cc(OCCC)ccc21 [TCMDC-137442] | 25 | 0.75 | – | 100 | 19 | 25 | 0.914 | 0.747 | 0.91 | –
CC(C)CNCc1cccc(-c2ccc(CN(CCCN3CCN(C)CC3)C(=O)CCC3CCCC3)cc2)c1 [TCMDC-140558] | >36 | 0.7 | – | 100 | > 25 | >36 | 0.877 | – | – | –
c1cc(CN2CCC(CCN3CCCCC3)CC2)cc(-c2cccc(-c3nc4ccccc4[nH]3)c2)c1 [TCMDC-133920] | 45 | 0.29 | – | 100 | 13.1 | 45 | 0.14 | 0.293 | – | 13
COc1ccc(CNCc2ccc(F)cc2)cc1-c1ccc(OC)c(S(=O)(=O)NCCN2CCCC2)c1 [TCMDC-132295] | 16 | 0.72 | 0.717 | 99 | 11.4 | 16 | 0.786 | – | – | –
c1ccc2c(NCCCCCCNc3ccnc4ccccc34)ccnc2c1 [TCMDC-137913] | 17 | 0.96 | 0.963 | 100 | 16.4 | 17 | 0.191 | – | – | –
Cn1nc(C(F)(F)F)c(-c2ccc(Br)cc2)c1NC(=O)Cc1ccccc1F [TCMDC-123792] | >14 | 1.79 | – | 100 | > 25 | >14 | 0.157 | 1.79 | 0.16 | –
COc1cccc(CC(=O)N2CCC(n3c(C)nc4ccc(C)cc43)CC2)c1 [TCMDC-124791] | >53 | 0.47 | – | 100 | > 25 | >53 | 0.114 | – | 0.11 | –
COc1cc2nc(NCC3CCN(c4nc(N)c5cc(OC)c(OC)cc5n4)CC3)nc(N)c2cc1OC [TCMDC-138723] | >18 | 1.42 | – | 98 | > 25 | >18 | 0.776 | – | – | –
Cc1ccc(C)c(CC(=O)N2CCC(n3c(C)nc4ccc(F)cc43)CC2)c1 [TCMDC-124790] | >27 | 0.92 | – | 100 | > 25 | >27 | 0.193 | 0.923 | 0.19 | –
CCN(CC)CCCOC(=O)c1ccc2c(c1)-c1ccc(C(=O)OCCCN(CC)CC)c3cccc-2c13 [TCMDC-125491] | 140 | 0.14 | 0.143 | 96 | 20 | 140 | 0.933 | – | – | –
Cc1cc(Nc2ccncc2)n2nc(C)c(-c3ccc(Cl)cc3)c2n1 [TCMDC-124478] | >55 | 0.91 | – | 100 | > 50 | >55 | 0.157 | 0.913 | 0.16 | > 25
FC(F)(F)c1ccc2[nH]c(-c3cccc(-c4ccc(CNCCN5CCNCC5)cc4)c3)nc2c1 [TCMDC-132872] | 15 | 0.86 | – | 100 | 12.6 | 15 | 0.862 | – | 0.86 | 13
c1cc(Nc2nc(-c3ccc(-c4csc(Nc5ccncc5)n4)cc3)cs2)ccn1 [TCMDC-139725] | 67 | 0.26 | – | 93 | 17.3 | 67 | 0.117 | – | – | –
C=CCN(C(=O)c1ccc(Cl)c([N+](=O)[O-])c1)c1nc(-c2ccccc2)cs1 [TCMDC-124436] | >237 | 0.11 | – | 100 | > 25 | >237 | 0.398 | 0.105 | 0.4 | –
COc1ccc(CNC2Cc3ccccc3C2)cc1-c1ccc(OC)c(S(=O)(=O)NCCN2CCCC2)c1 [TCMDC-132251] | 15 | 1.14 | – | 100 | 16.6 | 15 | 0.773 | – | – | –
COc1ccc(Nc2nccc(-c3ccc4ccnc(NCCCCN)c4c3)n2)cc1 [TCMDC-136642] | >77 | 0.33 | – | 99 | > 25 | >77 | 0.75 | 0.327 | – | –
COc1ccc2nc3cc(Cl)ccc3c(NCCCCNc3c4ccc(Cl)cc4nc4ccc(OC)cc34)c2c1 [TCMDC-138218] | 72 | 0.2 | – | 100 | 14.5 | 72 | 0.16 | – | – | –
CCCCCCCN1CC[C@@H](CCCc2ccnc3ccc(OCCCCNC(N)=NO)cc23)[C@@H](CC)C1 [TCMDC-139839] | 36 | 0.47 | 0.473 | 100 | 17.2 | 36 | 0.952 | – | – | –
Cc1cccc2nc(-c3ccc(-c4cccc(CNCCN5CCNCC5)c4)cc3)[nH]c12 [TCMDC-132867] | 16 | 0.84 | – | 100 | 13.4 | 16 | 1.23 | – | 1.23 | 13
COc1cc2nc(N3CCN(c4nc(N)c5cc(OC)c(OC)cc5n4)CC3)nc(N)c2cc1OC [TCMDC-123865] | >96 | 0.26 | – | 100 | > 25 | >96 | 0.146 | – | 0.15 | –
Cc1ccc(-n2c(C)nc3c(Nc4ccc(-c5ccncc5)cc4)ncnc32)c(C)c1 [TCMDC-136289] | >47 | 0.53 | 0.533 | 100 | > 25 | >47 | 0.101 | – | – | –
